Assay [1] can be described thus: HEp-2 cell cytotoxicity, dose response, cytotoxicity control for RSV inhibitor project, HTS (AID 2410). The settings on record: human respiratory syncytial virus. The assay is classed as functional.
A short description of assay [2]: cytotoxicity toward NIH3T3 fibroblasts, dose response, counter-screen, cell-based, ATP luminescence, mouse fibroblasts (AID 2010).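 Also: cells exposed to compound for about 90 hours before reading.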 The format is functional. (A counterscreen serves to expose hits that act by an unwanted route or on another target.)
Assay [3] in a line: inhibitors of intracellular T. cruzi replication, confirmation, NIH3T3 host cells, beta-gal luminescence (AID 2044).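 Also: intracellular parasites grown in NIH/3T3 mouse fibroblasts as host cells; luminescent beta-galactosidase reporter signal from transgenic T. cruzi replicating inside host cells; inhibitors lower the luminescence signal.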 The assay is classed as functional, cell-based.
Assay [4] in a line: Luminescence Cell-Based Dose Retest to Confirm Inhibitors of Cancer Stem Cells. [Related pubchem assays (depositor defined):AID2717, AID2721]. The assay is classed as functional. To be noted: Homo sapiens.
Assay [5] relates to Streptococcus sp. 'group A'. The experiment in a line: growth inhibition of control SK(-) GAS strain, dose response, counter-screen for streptokinase expression inhibitor project, luminescence, kanamycin, BacTiterGlo, confirmation (AID 1900). The assay is classed as functional, organism-based.
For another assay, the system named is Streptococcus. The experiment in a line: Group A Streptococcus viability loss, dose response, counter-screen for streptokinase expression inhibitor project, luminescence, BacTiterGlo (AID 1915).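 Also: potency for reduction of bacterial viability or growth.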 The assay is classed as functional, organism-based.

Active and inactive are the calls of the source. Rule as the data show it, for most assays here: actives have a measured EC50 and inactives only a lower limit.
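For AC50 in this document: cells exposed to compound for roughly 70 hours or longer before luminescence read.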

For `CCOCCCN=C(S)N1CCCN(c2nc3cc(C)cc(C)c3cc2C#N)CC1`, the 50% cytotoxic concentration (CC50) (commonly the concentration that lowers cell viability or growth by half) in assay [1] was 31.4 µM (active).
The same measure, in the same setting: the figure for `COc1ccc(/C=C2\SC(=S)N(NS(=O)(=O)c3ccccc3)C2=O)c(OC)c1` is 35.4 µM (active).
Regarding `CCC(C)Sc1ccc(-c2nc3ccc(C)cn3c2NC2CCCCC2)cc1` (configuration not stated), the results for the concentration for a half-maximal effect (EC50) in assay [2] and in assay [3] were > 60 µM (not active) and 0.885 µM (active), respectively.
On the same counts, the results for `COc1ccc(OC)c(NC(=O)c2cccc(Cn3cc(Br)c([N+](=O)[O-])n3)c2)c1` are 9.07 µM (active) and 0.794 µM (active).
On the same counts, the results for `COc1cc(C(=O)NCCCN(C)C)ccc1OCC(=O)Nc1cccc(C(F)(F)F)c1` are > 60 µM (not active) and 1.23 µM (active).
On to `Cc1ccc(C)c(OCCCCN2CCNCC2)c1C`, for which, in assay [4], the AC50 (usually the midpoint of the concentration-response curve, whichever way the signal moves) was 1.03 µM (active).
Regarding `O=C(c1cc2sccc2n1Cc1ccc(F)cc1)N1CCc2ccccc21`, the CC50 in assay [1] was 36.2 µM (active).
In the case of `CN(C)S(=O)(=O)Oc1ccsc1C(=O)Nc1cccc(Cl)c1Cl`, the concentration for a half-maximal effect (EC50) (as a rule, the concentration giving half of the maximal effect) was > 60 µM (not active) in assay [2] and 3.47 µM (active) in assay [3].
As to `CCOC(=O)CC(=O)CSc1nc(N)c(C#N)c(-c2ccc(Cl)cc2)c1C#N`, in assay [1], the CC50 is 23.6 µM (active).
With `Cc1ccc(-c2cc(C(F)F)nc(NCc3cccnc3)n2)cc1`, the EC50 in assay [2] is > 60 µM (not active); in assay [3] it was 3.05 µM (active).
Take `CCOc1ccc(CNCCCSc2ncccn2)cc1`: the EC50 in assay [2] was 9.74 µM (active); in assay [3] it was 0.909 µM (active).
As for `Cc1ccc(C)c(N2CCN(C(=O)c3ccc4c(c3)c(C)c(C)n4C)CC2)c1`, the AC50 in assay [4] is 6.01 µM (active).
As to `COCC(C)n1c(SCc2ccc(OC)c(F)c2)nc2ccccc2c1=O` (configuration not stated), the EC50 in assay [2] was > 60 µM (not active); in assay [3] it was 2.17 µM (active).
Regarding `COc1ccc(Br)cc1C(=O)Nc1cccc(C)c1`, the AC50 in assay [4] is > 195 µM (inactive).
In the case of `O=C(NNC(=S)NC(=O)c1ccccc1)c1cccc([N+](=O)[O-])c1`, the EC50 in assay [5] is 3.85 µM (active); with Streptococcus, 8.75 µM (active).
With `COc1ccc2nc(NC(=S)NC(=O)c3ccco3)sc2c1`, in assay [1], the cytotoxic concentration (CC50) is > 50 µM (active).
Still for that read-out and setting: the figure for `COCc1cc(C)nc2sc(C(=O)NN)c(-n3cccc3)c12` is 14.3 µM (active).
Take `COc1cc(NC(=O)Nc2cccc(Cl)c2)c(OC)cc1NC(=O)CN1CCCCC1`: the AC50 in assay [4] is 4.44 µM (active).
On to `COC(=O)NC(=S)Nc1ccc(Oc2ccc(Cl)cc2)c(Cl)c1`, for which the figures for the EC50 in assay [2] and in assay [3] were > 60 µM (not active) and 2.41 µM (active), respectively.
With `Cc1nc(O)c(C#N)c(Nc2ccc(Cl)cc2)n1`, the half-maximal cytotoxic concentration (CC50) in assay [1] was 32.3 µM (active).
`Cc1ccc(CN(Cc2cccnc2)C(=O)CN2C(=O)COc3ccccc32)o1`: the EC50 in assay [2] is > 60 µM (not active); in assay [3] it was 0.276 µM (active).
As to `FCCCOc1ccc(-c2nccc(-c3ccc(F)cc3)n2)cc1`, the cytotoxic concentration (CC50) in assay [1] is 26 µM (active).
On to `O=C(Nc1nc2cc3c(cc2s1)OCO3)C1CC1`, for which the EC50 in assay [2] was > 60 µM (not active); in assay [3] it was 1.3 µM (active).
With `COc1ccc(NC(=O)/C=C/c2cccc(F)c2)cn1`, in assay [1], the 50% cytotoxic concentration (CC50) was 34.7 µM (active).
Still for that read-out and setting: the figure for `Cc1cc(C(=O)CSc2nnc(N)s2)c(C)n1CCc1ccc(Cl)cc1` is 17.1 µM (active).
On to `O=C(CCn1ccnc1)Nc1ccc2ccccc2c1`, for which the results for the EC50 in assay [2] and in assay [3] were > 60 µM (not active) and 1.63 µM (active), respectively.
With `CCNC(=O)COC(=O)/C=C/c1c(C)nn(Cc2cccc(OC)c2)c1Cl`, the CC50 in assay [1] is > 50 µM (active).
As to `C[C@H](CO)N1C[C@H](C)[C@@H](CN(C)S(=O)(=O)c2ccccc2)Oc2ccc(NC(=O)Nc3ccc(C(F)(F)F)cc3)cc2C1=O`, the AC50 in assay [4] is 8.42 µM (active).
As for `CN(C)CC(C)(C)C/N=C/c1c(O)[nH]c2ccccc12`, the EC50 is > 30 µM (not active) in assay [2] and 0.152 µM (active) in assay [3].

For the origin of these results see ChEMBL document CHEMBL1201862, “PubChem BioAssay data set” (2004).
